In the first assay the target is human HPK1 (MAP4K1) (Homo sapiens (Human), UniProt Q92918). Kind of assay: HPK1 IC50 Assay (TR-FRET peptide phosphorylation). The settings on record: 0.15 nM HPK1, 10 μM ATP, 1 μM STK S1 peptide substrate; geometric mean. It counts as biochemical. As to the method: The enzymatic activity of human HPK1 (MAP4K1) was monitored in a biochemical assay in the presence or absence of compounds and using a synthetic peptide substrate. An increase in phosphorylation of the peptide by HPK1 was indicative of its kinase activity.
Sequence of human HPK1 (MAP4K1) (Q92918 17-274): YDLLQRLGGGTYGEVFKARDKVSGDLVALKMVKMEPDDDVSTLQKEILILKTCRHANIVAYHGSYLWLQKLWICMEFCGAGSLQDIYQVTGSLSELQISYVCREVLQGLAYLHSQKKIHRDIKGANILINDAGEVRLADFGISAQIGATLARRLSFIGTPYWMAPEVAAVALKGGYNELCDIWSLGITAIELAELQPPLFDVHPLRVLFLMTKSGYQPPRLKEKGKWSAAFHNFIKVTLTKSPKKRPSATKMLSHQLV
Recombinant HPK1 kinase domain produced via baculovirus infection of insect cells was obtained from Proteros (Proteros Biostructures #PR-0322) and was pre-activated in the presence of 2 mM ATP (Sigma-Aldrich, cat #GE27-2056-01) and 2 mM magnesium chloride for 16 hours at 4° C. The protein reaction mixture was then loaded to a desalting column (Thermo Fisher Scientific, Cat #89889) to remove excess ATP. HPK1 was eluted with buffer containing 20 mM Tris (2-Amino-2-(hydroxymethyl)propane-1,3-diol) pH 8.0, 150 mM NaCl, 2 mM dithiothreitol and 5% glycerol, and was frozen at −80° C. for later use. HPK1 dual phosphorylation was confirmed by mass spectrometry.
Ten nanoliters of test compounds dissolved in DMSO at various concentrations were dispensed into a 384-well ProxiPlate (PerkinElmer #6008289). Five microliters of a solution of recombinant HPK1 diluted in HPK1 kinase assay buffer (50 mM BES [N,N-Bis(2-hydroxyethyl)-2-aminoethanesulfonic acid], pH 7.0; 10 mM magnesium chloride; 0.01% Triton X-100; 1 mM dithiothreitol; 0.01% bovine serum albumin; 0.1 mM sodium orthovanadate) was added to the compound-containing plate and was incubated for 15 minutes at 25° C. Five microliters of a mixture of ATP (Sigma-Aldrich #A6559) and peptide substrate STK S1 (Cisbio #61ST1BLC) diluted in HPK1 kinase assay buffer was then added to start the reaction. Final concentrations were 0.15 nM for HPK1, 10 μM for ATP, and 1 μM for the STK S1 peptide substrate. The reaction mixture was incubated at 25° C. for 3 hours and was stopped with the addition of 10 μl of an EDTA (Ethylenediaminetetraacetic acid)-containing detection buffer (Cisbio #62SDBRDF) supplemented with Europium cryptate-labeled anti-phospho-serine/threonine antibodies (Cisbio #62ST1PEJ) and XL665-labeled streptavidin (Cisbio #610SAXLG). The mixture was incubated for 16 hours at room temperature and peptide phosphorylation was measured by time-resolved fluorescence energy transfer (665 nm/620 nm) on an Envision plate reader (PerkinElmer).
Data in Table 1 were normalized based on positive (staurosporine) and negative (DMSO) controls. Least squares curve fittings were performed using a four-parameter variable slope nonlinear regression model. IC50 is defined as the concentration of compound required to inhibit 50% of maximum phosphorylation. IC50 values from multiple experiments were averaged by geometric mean and the standard deviation was calculated.
Compound `CC(C)n1cnc2cc(-c3ccc4c(c3)N([C@H]3C[C@@](C)(N5CCCCC5)C3)C(=O)C4(C)C)nc(Nc3cc(C(=O)NC4(C(F)F)CC4)c(Cl)cc3F)c21` [Example 294, 2-chloro-N-(1-(difluoromethyl)cyclopropyl)-5-((6-(3,3-dimethyl-1-((1s,3s)-3-methyl-3-(piperidin-1-yl)cyclobutyl)-2-oxoindolin-6-yl)-3-isopropyl-3H-imidazo[4,5-c]pyridin-4-yl)amino)-4-fluorobenzamide] registered an IC50 of 0.08 nM.

On to `Cc1c(C(=O)NCC(F)F)cc(Nc2nc(-c3cc4c(nc3F)C(C)(C)C(=O)N4[C@H]3C[C@@](C)(N4CCCCC4)C3)cc3ncn(C(C)C)c23)c(F)c1F` [Example 269, N-(2,2-difluoroethyl)-3,4-difluoro-5-((6-(5-fluoro-3,3-dimethyl-1-((1s,3s)-3-methyl-3-(piperidin-1-yl)cyclobutyl)-2-oxo-2,3-dihydro-1H-pyrrolo[3,2-b]pyridin-6-yl)-3-isopropyl-3H-imidazo[4,5-c]pyridin-4-yl)amino)-2-methylbenzamide], for which the IC50 was 0.07 nM.

Staying with this assay, now noted: recombinant HPK1 kinase domain 0.15 nM, 10 μM ATP, 1 μM STK S1 peptide; geometric mean of multiple experiments.
Turning to `CNC(=O)c1cc(Nc2nc(-c3ccc4c(c3)N([C@H]3C[C@@H](N5CCC[C@@H](F)C5)C3)C(=O)C43CCN(C(C)=O)CC3)cc3ncn(C(C)C)c23)ccc1C` [Example 162], the IC50 is 0.1 nM.

Turning to `CCNC(=O)c1cc(Nc2nc(-c3cnc4c(c3)N([C@H]3C[C@@](C)(N5CCC6CC6C5)C3)C(=O)C4(C)C)cc3ncn(C(C)C)c23)c(F)c(F)c1Cl` (stereo partly shown) [Example 251, 5-((6-(1-((1s,3s)-3-(3-azabicyclo[4.1.0]heptan-3-yl)-3-methylcyclobutyl)-3,3-dimethyl-2-oxo-2,3-dihydro-1H-pyrrolo[3,2-b]pyridin-6-yl)-3-isopropyl-3H-imidazo[4,5-c]pyridin-4-yl)amino)-2-chloro-N-ethyl-3,4-difluorobenzamide], the IC50 turned out to be 0.04 nM.

As for `CNC(=O)c1cc(Nc2nc(-c3ccc4c(c3)N([C@H]3C[C@@H](N5CCCCC5)C3)C(=O)C43CCN(C(C)=O)CC3)cc3ncn(C(C)C)c23)ccc1C` [Example 46], the IC50 is 0.1 nM.

Consider `CC(C)n1cnc2cc(-c3cnc4c(c3)N([C@H]3C[C@@](C)(N5CCCCC5)C3)C(=O)C4(C)C)nc(Nc3cc(C(=O)NC4(C(F)F)CC4)c(Cl)c(F)c3F)c21` [Example 207, 2-Chloro-N-(1-(difluoromethyl)cyclopropyl)-5-((6-(3,3-dimethyl-1-((1s,3s)-3-methyl-3-(piperidin-1-yl)cyclobutyl)-2-oxo-2,3-dihydro-1H-pyrrolo[3,2-b]pyridin-6-yl)-3-isopropyl-3H-imidazo[4,5-c]pyridin-4-yl)amino)-3,4-difluorobenzamide], for which the IC50 amounted to 0.08 nM.

In the case of `Cc1c(C(=O)NC2(C(F)F)CC2)cc(Nc2nc(-c3cnc4c(c3)N(C3CC(C)(N5CCC6C[C@H]5CO6)C3)C(=O)C4(C)C)cc3ncn(C(C)C)c23)c(F)c1F` (stereo partly shown) [Example 192, 5-((6-(1-((1s,3s)-3-(6-oxa-2-azabicyclo[3.2.1]octan-2-yl)-3-methylcyclobutyl)-3,3-dimethyl-2-oxo-2,3-dihydro-1H-pyrrolo[3,2-b]pyridin-6-yl)-3-isopropyl-3H-imidazo[4,5-c]pyridin-4-yl)amino)-N-(1-(difluoromethyl)cyclopropyl)-3,4-difluoro-2-methylbenzamide], the IC50 turned out to be 0.1 nM.

Take `CNC(=O)c1cc(Nc2nc(-c3cnc4c(c3)N([C@H]3C[C@@H](N5CCCCC5)C3)C(=O)C4(C)C)cc3ncn(C(C)C)c23)ccc1C` [Example 18]: the IC50 was determined as 0.4 nM.

`CNC(=O)c1cc(Nc2nc(-c3ccc4c(c3)N([C@H]3C[C@@H](N5CCCCC5)C3)C(=O)C4(C)C)cc3ncn(C(C)C)c23)ccc1C(F)(F)F` [Example 141]: the IC50 is 0.07 nM.

On to `CNC(=O)c1cc(Nc2nc(-c3ccc4c(c3)N([C@H]3C[C@@H](N5CCCCC5)C3)C(=O)C4(C)C)cc3ncn(C(C)C)c23)c(F)cc1C` [Example 175], for which the IC50 came to 0.1 nM.

Turning to `CC(=O)N1CCC2(CC1)C(=O)N([C@H]1C[C@@H](N3CCCCC3)C1)c1cc(-c3cc4ncn(C(C)C)c4c(Nc4cc(C(=O)NC(C)C)c(C)cc4F)n3)ccc12` [Example 129], the IC50 amounted to 0.2 nM.

`CNC(=O)c1cc(Nc2nc(-c3ccc4c(c3)N([C@H]3C[C@@H](N5CCCCC5)C3)C(=O)C43CCN(C(=O)C4(C)CC4)CC3)cc3ncn(C4CC4)c23)ccc1C` [Example 150]: the IC50 stood at 0.1 nM.

Consider `CCNC(=O)c1cc(Nc2nc(-c3ccc4c(c3)N([C@H]3C[C@@H](N5CCCCC5)C3)C(=O)C43CN(C(C)=O)C3)cc3ncn(C(C)C)c23)c(F)cc1C` [Example 178], for which the IC50 amounted to 0.3 nM.

With `CNC(=O)c1cc(Nc2nc(-c3ccc4c(c3)N([C@H]3C[C@@H](N5CCCCC5)C3)CC4(C)C)cc3ncn(C4CC4)c23)ccc1C` [Example 58], the IC50 amounted to 0.6 nM.

Regarding `Cc1c(C(=O)NC2(C(F)F)CC2)cc(Nc2nc(-c3cnc4c(c3)N([C@H]3C[C@@](C)(N5CCC6CC5CO6)C3)C(=O)C4(C)C)cc3ncn(C(C)C)c23)c(F)c1F` (mixture of isomers) [Example 190, 5-((6-(1-((1s,3s)-3-(6-Oxa-2-azabicyclo[3.2.1]octan-2-yl)-3-methylcyclobutyl)-3,3-dimethyl-2-oxo-2,3-dihydro-1H-pyrrolo[3,2-b]pyridin-6-yl)-3-isopropyl-3H-imidazo[4,5-c]pyridin-4-yl)amino)-N-(1-(difluoromethyl)cyclopropyl)-3,4-difluoro-2-methylbenzamide], the IC50 came out at 0.07 nM.

On to `CNC(=O)c1cc(Nc2nc(-c3ccc4c(c3)N([C@H]3C[C@@H](N5CCCCC5)C3)C(=O)C4(C)O)cc3ncn(C(C)C)c23)ccc1Cl` (stereo partly shown) [Example 63], for which the IC50 was 0.1 nM.

Consider `Cc1c(C(=O)NC2(C(F)F)CC2)cc(Nc2nc(-c3cnc4c(c3)N(C3CC(C)(N5CCC6C[C@@H]6C5)C3)C(=O)C4(C)C)cc3ncn(C(C)C)c23)c(F)c1F` (stereo partly shown) [Example 232, 5-((6-(1-((1s,3s)-3-(3-azabicyclo[4.1.0]heptan-3-yl)-3-methylcyclobutyl)-3,3-dimethyl-2-oxo-2,3-dihydro-1H-pyrrolo[3,2-b]pyridin-6-yl)-3-isopropyl-3H-imidazo[4,5-c]pyridin-4-yl)amino)-N-(1-(difluoromethyl)cyclopropyl)-3,4-difluoro-2-methylbenzamide], for which the IC50 amounted to 0.09 nM.

`CC[C@H](C)n1cnc2cc(-c3ccc4c(c3)N([C@H]3C[C@@H](N5CCCCC5)C3)C(=O)C43CCN(C(C)=O)CC3)nc(Nc3ccc(C)c(C(=O)NC)c3)c21` [Example 48]: the IC50 came to 0.1 nM.

Consider `Cc1cc(F)c(Nc2nc(-c3cnc4c(c3)N([C@H]3C[C@@](C)(N5CCOCC5)C3)C(=O)C4(C)C)cc3ncn(C(C)C)c23)cc1C(=O)NC1(C(F)F)CC1` [Example 215, N-(1-(Difluoromethyl)cyclopropyl)-5-((6-(3,3-dimethyl-1-((1s,3s)-3-methyl-3-morpholinocyclobutyl)-2-oxo-2,3-dihydro-1H-pyrrolo[3,2-b]pyridin-6-yl)-3-isopropyl-3H-imidazo[4,5-c]pyridin-4-yl)amino)-4-fluoro-2-methylbenzamide], for which the IC50 is 0.1 nM.

Values taken from patent US11203591B2, “Substituted 6-azabenzimidazole compounds” (Gilead Sciences, Inc., priority 2018, dated 2021).
